According to US11613545B2, “Macrocyclic compound serving as Wee1 inhibitor and applications thereof” (WUXI BIOCITY BIOPHARMACEUTICS CO., LTD., priority 2017, dated 2023):

target: T1, Wee1 (Homo sapiens, UniProt P30291); assay: In vitro enzymatic inhibitory activity, Wee1 kinase (Eurofins, [γ-33P]-ATP filter assay); format: biochemical; details: 10 μM [γ-33P]-ATP, 40 min at room temperature
T1 construct: purchased Eurofins
Method: The experimental tests were conducted at Eurofins, and the results were provided by the company.
After adding the mixed solution of Mg^2+ and ATP, the reaction started and the reaction solution was incubated at room temperature for 40 min. 3% phosphate buffer was added to stop the reaction. 10 μL of the reaction solution was filtered on a continuous filter P30, washed three times with 75 mM phosphate buffer, once with methanol, and 5 minutes each time. After drying, the value was read by scintillation counting method.

T1 sequence (P30291 whole entry): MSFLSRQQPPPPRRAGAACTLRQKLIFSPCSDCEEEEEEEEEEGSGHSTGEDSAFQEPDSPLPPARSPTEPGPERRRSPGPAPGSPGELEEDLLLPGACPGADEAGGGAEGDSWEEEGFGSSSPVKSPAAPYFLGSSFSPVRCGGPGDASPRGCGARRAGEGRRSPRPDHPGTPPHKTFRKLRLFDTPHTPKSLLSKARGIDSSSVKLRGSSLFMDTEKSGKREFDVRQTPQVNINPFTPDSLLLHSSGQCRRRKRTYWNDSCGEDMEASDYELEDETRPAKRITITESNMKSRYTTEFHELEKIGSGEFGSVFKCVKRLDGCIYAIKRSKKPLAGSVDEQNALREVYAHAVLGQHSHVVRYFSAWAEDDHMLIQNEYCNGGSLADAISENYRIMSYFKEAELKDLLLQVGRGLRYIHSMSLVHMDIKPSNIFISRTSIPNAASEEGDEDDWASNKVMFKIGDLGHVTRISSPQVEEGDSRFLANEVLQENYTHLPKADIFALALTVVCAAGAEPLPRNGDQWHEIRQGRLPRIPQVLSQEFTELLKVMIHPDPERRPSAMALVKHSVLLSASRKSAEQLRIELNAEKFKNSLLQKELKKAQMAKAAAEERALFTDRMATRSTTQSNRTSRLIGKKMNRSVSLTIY

SMILES | IC50
CN1CCCN(c2ccc(Nc3ncc4c(=O)n5n(c4n3)-c3cccc(n3)C(C)(O)CC/C=C\C5)cc2)CC1 (centres unmarked) [Compound 10] | 49 nM
COc1cccc(Nc2ncc3c(=O)n4n(c3n2)-c2cccc(n2)[C@@](C)(O)CC/C=C\C4)c1 [Compound 17] | 366 nM
CN1CCc2ccc(Nc3ncc4c(=O)n5n(c4n3)-c3cccc(n3)[C@](C)(O)CC/C=C\C5)cc2C1 [Compound 26] | 30 nM
C[C@@]1(O)CC/C=C\Cn2c(=O)c3cnc(Nc4cccc(F)c4)nc3n2-c2cccc1n2 [Compound 28] | 79 nM
CN(C)C1CCN(c2ccc(Nc3ncc4c(=O)n5n(c4n3)-c3cccc(n3)C(C)(O)CC/C=C\C5)cc2)CC1 (centres unmarked) [Compound 9] | 41 nM
CN(C)CCOc1ccc(Nc2ncc3c(=O)n4n(c3n2)-c2cccc(n2)[C@@](C)(O)CC/C=C\C4)cc1 [Compound 19] | 72 nM
C[C@]1(O)CC/C=C\Cn2c(=O)c3cnc(Nc4cccc(F)c4)nc3n2-c2cccc1n2 [Compound 29] | 444 nM
CN1CC2CN(c3ccc(Nc4ncc5c(=O)n6n(c5n4)-c4cccc(n4)[C@@](C)(O)CC/C=C\C6)cc3)CC2C1 (some centres unmarked) [Compound 25] | 78 nM
CN1CCN(c2ccc(Nc3ncc4c(=O)n5n(c4n3)-c3cccc(n3)[C@](C)(O)CC/C=C\C5)cc2CO)CC1 [Compound 22] | 16 nM
C[C@@]1(O)CC/C=C\Cn2c(=O)c3cnc(Nc4ccccc4)nc3n2-c2cccc1n2 [Compound 12] | 59 nM
CN1CCc2ccc(Nc3ncc4c(=O)n5n(c4n3)-c3cccc(n3)[C@@](C)(O)CC/C=C\C5)cc2C1 [Compound 27] | 37 nM
CC1(O)CC/C=C\Cn2c(=O)c3cnc(Nc4ccc(N5CCCNCC5)cc4)nc3n2-c2cccc1n2 (centres unmarked) [Compound 11] | 102 nM
CN1CCC2(CC1)CCN(c1ccc(Nc3ncc4c(=O)n5n(c4n3)-c3cccc(n3)C(C)(O)CC/C=C\C5)cc1)CC2 (centres unmarked) [Compound 7] | 54 nM
CN(C)CCOc1ccc(Nc2ncc3c(=O)n4n(c3n2)-c2cccc(n2)[C@](C)(O)CC/C=C\C4)cc1 [Compound 18] | 29 nM
CC1(O)CC/C=C\Cn2c(=O)c3cnc(Nc4ccc(N5CCNCC5)cc4)nc3n2-c2cccc1n2 (centres unmarked) [Compound 6] | 46 nM
COc1cccc(Nc2ncc3c(=O)n4n(c3n2)-c2cccc(n2)[C@](C)(O)CC/C=C\C4)c1 [Compound 16] | 60 nM
CC1(O)CC/C=C\Cn2c(=O)c3cnc(Nc4ccc(N5CCC(F)(F)CC5)cc4)nc3n2-c2cccc1n2 (centres unmarked) [Compound 3] | 42 nM
CN1CCC(c2ccc(Nc3ncc4c(=O)n5n(c4n3)-c3cccc(n3)[C@](C)(O)CC/C=C\C5)cc2)CC1 [Compound 20] | 173 nM
CN1CC2CN(c3ccc(Nc4ncc5c(=O)n6n(c5n4)-c4cccc(n4)[C@](C)(O)CC/C=C\C6)cc3)CC2C1 (some centres unmarked) [Compound 24] | 57 nM
CN1CCC(c2ccc(Nc3ncc4c(=O)n5n(c4n3)-c3cccc(n3)[C@@](C)(O)CC/C=C\C5)cc2)CC1 [Compound 21] | 280 nM
C[C@]1(O)CC/C=C\Cn2c(=O)c3cnc(Nc4ccccc4)nc3n2-c2cccc1n2 [Compound 13] | 265 nM
COCc1cc(Nc2ncc3c(=O)n4n(c3n2)-c2cccc(n2)[C@](C)(O)CC/C=C\C4)ccc1N1CCN(C)CC1 [Compound 23] | 29 nM

Further lines, results first:

IC50 | SMILES
35 nM | CN(C)CCOc1cccc(Nc2ncc3c(=O)n4n(c3n2)-c2cccc(n2)[C@](C)(O)CC/C=C\C4)c1 [Compound 36]
151 nM | C[C@]1(O)CC/C=C\Cn2c(=O)c3cnc(Nc4ccc(N5CCOCC5)cc4)nc3n2-c2cccc1n2 [Compound 33]
221 nM | CN(C)CCOc1cccc(Nc2ncc3c(=O)n4n(c3n2)-c2cccc(n2)[C@@](C)(O)CC/C=C\C4)c1 [Compound 42]
35 nM | C[C@@]1(O)CC/C=C\Cn2c(=O)c3cnc(Nc4ccc(OC5CC5)cc4)nc3n2-c2cccc1n2 [Compound 40]
67 nM | C[C@@]1(O)CC/C=C\Cn2c(=O)c3cnc(Nc4ccc(F)cc4)nc3n2-c2cccc1n2 [Compound 30]
116 nM | CN1CCN(c2cccc(Nc3ncc4c(=O)n5n(c4n3)-c3cccc(n3)[C@](C)(O)CC/C=C\C5)c2)CC1 [Compound 34]
16 nM | C[C@@]1(O)CC/C=C\Cn2c(=O)c3cnc(Nc4ccc(N5CCC(F)(F)CC5)cc4)nc3n2-c2cccc1n2 [Compound 41]
323 nM | C[C@]1(O)CC/C=C\Cn2c(=O)c3cnc(Nc4ccc(F)cc4)nc3n2-c2cccc1n2 [Compound 31]
48 nM | CN(C)C1CCN(c2ccc(Nc3ncc4c(=O)n5n(c4n3)-c3cccc(n3)[C@](C)(O)CC/C=C\C5)cc2)CC1 [Compound 38]
37 nM | C[C@@]1(O)CC/C=C\Cn2c(=O)c3cnc(Nc4ccc(N5CCOCC5)cc4)nc3n2-c2cccc1n2 [Compound 32]
31 nM | CN1CCCN(c2ccc(Nc3ncc4c(=O)n5n(c4n3)-c3cccc(n3)[C@](C)(O)CC/C=C\C5)cc2)CC1 [Compound 37]
276 nM | CN1CCN(c2cccc(Nc3ncc4c(=O)n5n(c4n3)-c3cccc(n3)[C@@](C)(O)CC/C=C\C5)c2)CC1 [Compound 35]
54 nM | C[C@@]1(O)CC/C=C\Cn2c(=O)c3cnc(Nc4ccc(Cl)cc4)nc3n2-c2cccc1n2 [Compound 39]
